From patent US10047087B2, “Substituted pyrazolo[1,5-A] pyridine as tropomyosin receptor kinase (TrK) inhibitors” (Dr. Reddy's Laboratories Ltd., priority 2011, dated 2018) come the findings set out here.

As usually defined, the half-life is how long it takes for the measured level to halve. A higher half-life goes with slow loss. The IC50 is the concentration that gives 50% inhibition.

Data set [1] can be described thus: Metabolic stability using Human Liver Microsomes (HLM). The format is in vitro ADME. The following applies: pooled human liver microsomes, compound 1 μM, 0.3 mg/ml microsomal protein, 1 mM NADPH. Here is the method: Stability Protocol: Metabolic Stability Using Rat Liver Microsomes (RLM) and Human Liver Microsomes (HLM).
This assay was performed using pooled male rat liver microsomes (In-house prepared as per SOP), Pooled Human liver microsomes (XENOTECH; Batch No— H0630-1110189)). The 100 μl reaction contains the compounds at 1 μM, 0.3 mg/ml microsomal protein and both the co-factors (1 mM NADPH) in buffer and the mixture was incubated at different time points (0, 15, 30, 45, 60, & 90 minutes). The reaction was stopped by the addition of equal volume of acetonitrile containing internal standard (Telmesartin). The precipitated protein was removed by centrifugation and the supernatant were analyzed LC/MS-MS method. The percent parent compound remaining was quantified by analysis using following formula (% parent compound remaining=(peak area at Time x/peak area at T0)×100. The intrinsic clearance was calculated using the following formula. CLint,app: (0.693/in vitro t½)(incubation volume/mg of microsomal protein)(45 mg microsomal protein/gram of liver)(20^a g of liver/kg body weight) • a: 20 and 45 g of liver/kg of body weight were used for human and rat, respectively (Lu C et al., DMD, 2006). Bio-analysis: It was performed in Multiple Reaction Monitoring mode (negative mode) using Applied Biosystems API 4000 coupled to Agilent Technologies 1100 series HPLC on a reverse phase column (Zorbax Eclipse XDB C18, 50×4.6 mm, 5 μm). Celecoxib was used as internal standard both in in-vitro and in-vivo experiments. Mobile phase used 0.05% […] water and acetonitrile (10:90) with a flow rate of 0.6 ml/minute. The injection volume was kept as 10 μl.

The target in a further data set is T1, TrkA kinase (Homo sapiens, UniProt P04629).
T1 construct: purchased Upstate, USA
Nature of the data set: In vitro TrkA inhibitory activity using TR-FRET assay. The format is biochemical. The following applies: 5 ng TrkA, 500 μM ATP. An outline of the steps: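 Kinase (5 ng) was preincubated with compound for 30 min at 20-35° C before adding 40 nM ULight poly GT and 500 μM ATP; stopped with EDTA after 30 min. Eu-anti-phosphotyrosine antibody (0.5 nM) was read at 615/665 nm with 1% DMSO final. Compounds showing >25% inhibition at 1 μM went to sigmoidal dose-response IC50 fitting.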
In general terms: TR-FRET usually uses a lanthanide donor and a delayed reading to cut background.

[2] abbreviates: read-out: TrkA inhibition in-vitro IC50.
[3] abbreviates: both bounds given in nm, read-out: TrkA inhibitory activity in-vitro IC50.

Structures are written as SMILES. Read-outs that look alike come from different tables or passages of the source.

T1 sequence (P04629 33-796): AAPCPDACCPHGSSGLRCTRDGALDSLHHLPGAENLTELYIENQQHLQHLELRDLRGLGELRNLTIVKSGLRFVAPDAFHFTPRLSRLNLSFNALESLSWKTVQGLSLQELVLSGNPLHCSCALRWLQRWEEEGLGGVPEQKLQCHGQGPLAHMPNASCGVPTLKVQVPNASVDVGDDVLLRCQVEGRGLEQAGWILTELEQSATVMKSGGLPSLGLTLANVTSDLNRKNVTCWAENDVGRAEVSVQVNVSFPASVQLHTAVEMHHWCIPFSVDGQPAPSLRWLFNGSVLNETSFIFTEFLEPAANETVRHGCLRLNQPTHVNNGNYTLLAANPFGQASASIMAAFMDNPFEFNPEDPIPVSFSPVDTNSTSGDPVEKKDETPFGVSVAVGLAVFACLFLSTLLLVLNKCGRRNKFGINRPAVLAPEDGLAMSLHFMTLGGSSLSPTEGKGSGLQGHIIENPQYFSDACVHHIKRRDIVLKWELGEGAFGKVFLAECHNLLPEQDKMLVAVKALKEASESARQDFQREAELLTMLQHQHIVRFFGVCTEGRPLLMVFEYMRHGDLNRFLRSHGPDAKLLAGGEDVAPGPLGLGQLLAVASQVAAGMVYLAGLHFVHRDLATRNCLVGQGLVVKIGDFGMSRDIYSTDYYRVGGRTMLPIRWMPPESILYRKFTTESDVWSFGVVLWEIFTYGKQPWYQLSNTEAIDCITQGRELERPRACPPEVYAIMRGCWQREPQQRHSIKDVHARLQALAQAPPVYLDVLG

As for `CC(C)(C)S(=O)(=O)NC(=O)c1cnn2ccc(N3CCC[C@@H]3c3cc(F)ccc3OC3CCOC3)cc12` (stereo partly drawn) [Example 59, N-(tert-butylsulfonyl)-5-((2R)-2-(5-fluoro-2-((tetrahydrofuran-3-yl)oxy)phenyl)pyrrolidin-1-yl)pyrazolo[1,5-a]pyridine-3-carboxamide], the half-life at 1 μM in data set [1] was > 80 min. The IC50 at TrkA kinase (setting [2]) was ≤ 50 nM.
On to `CC1(S(=O)(=O)NC(=O)c2cnn3ccc(N4C[C@@H](F)C[C@@H]4c4cc(F)ccc4F)cc23)CC1` [Example 74, 5-((2R,4S)-2-(2,5-difluorophenyl)-4-fluoropyrrolidin-1-yl)-N-((1-methylcyclopropyl)sulfonyl)pyrazolo[1,5-a]pyridine-3-carboxamide], for which the half-life at 1 μM in data set [1] was > 80 min. At TrkA kinase (setting [2]), the IC50 was ≤ 50 nM.
As for `CC(C)(C)S(=O)(=O)NC(=O)c1cnn2ccc(N3CCC[C@@H]3c3cc(F)ccc3F)cc12` [Example 2, (R)-N-(tert-butylsulfonyl)-5-(2-(2,5-difluorophenyl)pyrrolidin-1-yl) pyrazolo[1,5-a]pyridine-3-carboxamide], the half-life at 1 μM in data set [1] was > 80 min. The IC50 at TrkA kinase (setting [2]) was ≤ 50 nM.
The like results for `O=C(NS(=O)(=O)c1ccc(N2CC[C@H](O)C2)nc1)c1cnn2ccc(N3CCC[C@@H]3c3cc(F)ccc3F)cc12` [Example 25, 5-((R)-2-(2,5-difluorophenyl)pyrrolidin-1-yl)-N-((6-((S)-3-hydroxypyrrolidin-1-yl)pyridin-3-yl)sulfonyl)pyrazolo[1,5-a] pyridine-3-carboxamide] were, in that order, > 80 min and ≤ 50 nM.
On to `CCN(C)S(=O)(=O)NC(=O)c1cnn2ccc(N3C[C@@H](F)C[C@@H]3c3cc(F)ccc3F)cc12` [Example 79, 5-((2R,4S)-2-(2,5-difluorophenyl)-4-fluoropyrrolidin-1-yl)-N-(N-ethyl-N-methylsulfamoyl) pyrazolo[1,5-a]pyridine-3-carboxamide], for which the half-life at 1 μM in data set [1] was > 80 min. The IC50 at TrkA kinase (setting [2]) was ≤ 50 nM.
For the molecule `CC(C)(C)S(=O)(=O)NC(=O)c1cnn2ccc(N3C[C@@H](F)C[C@@H]3c3cc(F)ccc3F)cc12` (single isomer, unassigned) [Example 52], the half-life at 1 μM in data set [1] was > 80 min. In addition, the IC50 at TrkA kinase (setting [2]) was ≤ 50 nM.
On to `CC(C)S(=O)(=O)NC(=O)c1cnn2ccc(N3CCC[C@@H]3c3cc(F)ccc3F)c(F)c12` [Example 75, (R)-5-(2-(2,5-difluorophenyl)pyrrolidin-1-yl)-4-fluoro-N-(isopropylsulfonyl)pyrazolo[1,5-a]pyridine-3-carboxamide], for which the half-life at 1 μM in data set [1] was > 80 min. Besides, at TrkA kinase (setting [3]), the IC50 lay within 100 to 500 nM.
`CCN(C)S(=O)(=O)NC(=O)c1cnn2ccc(N3CCC[C@@H]3c3cc(F)ccc3OC)cc12` [Example 91, (R)-N-(N-ethyl-N-methylsulfamoyl)-5-(2-(5-fluoro-2-methoxyphenyl)pyrrolidin-1-yl)pyrazolo[1,5-a]pyridine-3-carboxamide]: in data set [1], the half-life at 1 μM was > 80 min. For the same molecule, on TrkA kinase (setting [2]), the IC50 was ≤ 50 nM.
For `COc1ccc(S(=O)(=O)NC(=O)c2cnn3ccc(N4CCC[C@@H]4c4cc(F)ccc4F)cc23)cn1` [Example 26, (R)-5-(2-(2,5-difluorophenyl)pyrrolidin-1-yl)-N-((6-methoxypyridin-3-yl)sulfonyl) pyrazolo[1,5-a]pyridine-3-carboxamide], the half-life at 1 μM in data set [1] is > 80 min. Moreover, on TrkA kinase (setting [2]), the IC50 fell in the range of 50 to 100 nM.
`CCN(C)S(=O)(=O)NC(=O)c1cnn2ccc(N3CCC[C@@H]3c3cc(F)ccc3F)cc12` [Example 77, (R)-5-(2-(2,5-difluorophenyl)pyrrolidin-1-yl)-N-(N-ethyl-N-methylsulfamoyl) pyrazolo[1,5-a]pyridine-3-carboxamide]: the half-life at 1 μM in data set [1] was > 80 min. Besides, the IC50 at TrkA kinase (setting [2]) is ≤ 50 nM.
Consider `CC(C)(C)S(=O)(=O)NC(=O)c1cnn2ccc(N3CCC[C@@H]3c3cc(F)cc(OC(F)F)c3)cc12` [Example 43, (R)-N-(tert-butylsulfonyl)-5-(2-(3-(difluoromethoxy)-5-fluorophenyl)pyrrolidin-1-yl) pyrazolo[1,5-a]pyridine-3-carboxamide], for which the half-life at 1 μM in data set [1] was > 80 min. Besides, the IC50 on TrkA kinase (setting [3]) was 100 to 500 nM.
Regarding `CCCS(=O)(=O)NC(=O)c1cnn2ccc(N3CCC[C@@H]3c3cc(F)ccc3F)cc12` [Example 10, (R)-5-(2-(2,5-difluorophenyl)pyrrolidin-1-yl)-N-(propylsulfonyl)pyrazolo[1,5-a] pyridine-3-carboxamide], the half-life at 1 μM in data set [1] was > 80 min. In addition, at TrkA kinase (setting [2]), the IC50 was ≤ 50 nM.
As to `CN(C)S(=O)(=O)NC(=O)c1cnn2ccc(N3CCC[C@@H]3c3cc(F)ccc3F)cc12` [Example 76, (R)-5-(2-(2,5-difluorophenyl)pyrrolidin-1-yl)-N—(N, N-dimethylsulfamoyl)pyrazolo[1,5-a]pyridine-3-carboxamide], the half-life at 1 μM in data set [1] was > 80 min. Further, the IC50 at TrkA kinase (setting [2]) is ≤ 50 nM.
With `CC(C)(C)S(=O)(=O)NC(=O)c1cnn2ccc(N3CCC[C@@H]3c3cc(F)ccc3OCCF)cc12` [Example 57, (R)-N-(tert-butylsulfonyl)-5-(2-(5-fluoro-2-(2-fluoroethoxy)phenyl)pyrrolidin-1-yl) pyrazolo[1,5-a]pyridine-3-carboxamide], in data set [1], the half-life at 1 μM was > 80 min. Also, the IC50 on TrkA kinase (setting [2]) was ≤ 50 nM.
For the molecule `CN(C)S(=O)(=O)NC(=O)c1cnn2ccc(N3C[C@@H](F)C[C@@H]3c3cc(F)ccc3F)cc12` [Example 78, 5-((2R,4S)-2-(2,5-difluorophenyl)-4-fluoropyrrolidin-1-yl)-N-(N,N-dimethylsulfamoyl) pyrazolo[1,5-a]pyridine-3-carboxamide], the half-life at 1 μM in data set [1] was > 80 min. At TrkA kinase (setting [2]), the IC50 was ≤ 50 nM.
The like results for `O=C(NS(=O)(=O)Cc1ccccc1)c1cnn2ccc(N3CCC[C@@H]3c3cc(F)ccc3F)cc12` [Example 40, (R)-N-(benzylsulfonyl)-5-(2-(2,5-difluorophenyl)pyrrolidin-1-yl)pyrazolo[1,5-a]pyridine-3-carboxamide] were, in that order, > 80 min and ≤ 50 nM.
For the molecule `COc1ccc(F)cc1[C@H]1CCCN1c1ccn2ncc(C(=O)NS(=O)(=O)C(C)(C)C)c2c1` [Example 42, (R)-N-(tert-butylsulfonyl)-5-(2-(5-fluoro-2-methoxyphenyl)pyrrolidin-1-yl)pyrazolo[1,5-a] pyridine-3-carboxamide], the half-life at 1 μM in data set [1] was > 80 min.
As to `CC1(S(=O)(=O)NC(=O)c2cnn3ccc(N4CCC[C@@H]4c4cc(F)ccc4F)cc23)CC1` [Example 38, (R)-5-(2-(2,5-difluorophenyl)pyrrolidin-1-yl)-N-((1-methylcyclopropyl)sulfonyl)pyrazolo[1,5-a] pyridine-3-carboxamide], in data set [1], the half-life at 1 μM is > 80 min.
In the case of `N#Cc1cccc(S(=O)(=O)NC(=O)c2cnn3ccc(N4CCC[C@@H]4c4cc(F)ccc4F)cc23)c1` [Example 4, (R)-N-((3-cyanophenyl)sulfonyl)-5-(2-(2,5-difluorophenyl)pyrrolidin-1-yl)pyrazolo[1,5-a]pyridine-3-carboxamide], the half-life at 1 μM in data set [1] is > 80 min. In addition, the IC50 on TrkA kinase (setting [2]) lay within 50 to 100 nM.
`COCCOc1ccc(F)cc1[C@H]1CCCN1c1ccn2ncc(C(=O)NS(=O)(=O)C(C)(C)C)c2c1` [Example 65, (R)-N-(tert-butylsulfonyl)-5-(2-(5-fluoro-2-(2-methoxyethoxy)phenyl)pyrrolidin-1-yl)pyrazolo [1,5-a]pyridine-3-carboxamide]: in data set [1], the half-life at 1 μM was > 80 min. In addition, at TrkA kinase (setting [2]), the IC50 is ≤ 50 nM.
In the case of `CCN(C)S(=O)(=O)NC(=O)c1cnn2ccc(N3CCCC3c3cc(F)cc4c3OCCCO4)cc12` (single isomer, unassigned) [Example 96, N-(N-ethyl-N-methylsulfamoyl)-5-(2-(8-fluoro-3,4-dihydro-2H-benzo[b][1,4]dioxepin-6-yl)pyrrolidin-1-yl)pyrazolo[1,5-a]pyridine-3-carboxamide], in data set [1], the half-life at 1 μM is > 80 min.
Consider `CCN(C)S(=O)(=O)NC(=O)c1cnn2ccc(N3CCC[C@@H]3c3cc(F)cc(O[C@@H]4CCOC4)c3)cc12` [Example 106, N-(N-ethyl-N-methylsulfamoyl)-5-((R)-2-(3-fluoro-5-(((R)-tetrahydrofuran-3-yl)oxy)phenyl)pyrrolidin-1-yl)pyrazolo[1,5-a]pyridine-3-carboxamide], for which the half-life at 1 μM in data set [1] was > 80 min.
With `CC(C)(C)S(=O)(=O)NC(=O)c1cnn2ccc(N3C[C@@H](F)C[C@@H]3c3cccc(F)c3)c(F)c12` [Example 121, N-(tert-butylsulfonyl)-4-fluoro-5-((2R,4S)-4-fluoro-2-(3-fluorophenyl)pyrrolidin-1-yl)pyrazolo[1,5-a]pyridine-3-carboxamide], the half-life at 1 μM in data set [1] is > 80 min.
